# According to article PMC9405216, “Antimicrobial and Cytotoxic Cyathane-Xylosides from Cultures of the Basidiomycete Dentipellis fragilis” (Antibiotics, 2022):
# Where two headings read alike, the source gives them in different places.
# Experiments:
# Assay type in all cases: cell-based
# [1] = test system: SKOV-3 (ovarian carcinoma); assay: MTT cytotoxicity test, SKOV-3; conditions: Homo sapiens, SK-OV-3, 120 h, five days incubation
# Excerpt: (§1) A panel of mammalian cell lines was used to determine the cytotoxicity of the compounds following a previously published protocol. The assay was initially performed using the sensitive cell lines KB3.1 (human endocervical adenocarcinoma) and L929 (mouse fibroblasts). Active compounds were further tested using the cell lines MCF-7 (human breast adenocarcinoma), PC-3 (human prostate adenocarcinoma), SKOV-3 (ovarian carcinoma), A549 (human lung carcinoma), and A431 (human squamous cell carcinomas) (Table 6). The cell lines A549, KB 3.1, and L929 were cultured in DMEM (Gibco, provided by Thermo Fisher Scientific), PC-3 in F12-K (Gibco) and MC-7, and SKOV-3 and A431 in RPMI (Gibco). With the exception of A549, all cell lines were supplemented with 10% bovine serum (Gibco). All cell lines were cultured at 37 °C. The L929 and KB 3.1 cell lines were cultivated under an atmosphere of 10% (v/v) carbon dioxide. Cytotoxicity tests were then carried out using MTT (3-(4,5-dimethylthiazol-2-yl)-2,5-diphenyltetrazolium bromide) in 96-well microtiter plates. Serial dilutions of the compounds (60 µL aliquots, each with an initial concentration of 1 mg/mL) were added into 120 µL aliquots of cell suspension (50000 cells/mL) in the 96-well plates. These were incubated for five days, after which an MTT assay was performed. The absorbance was taken at 590 nm using an Elisa plate reader (Victor, Überlingen, Germany). The half-maximal inhibitory concentration (IC50), the concentration at which cell growth inhibition was 50% of the control, was calculated as described elsewhere.
# [2] = test system: KB3.1 (ACC158) human endocervical adenocarcinoma; assay: MTT cytotoxicity test, KB3.1; conditions: KB3.1 human endocervical adenocarcinoma, five days incubation, n.c. = no cytotoxicity
# Excerpt: as §1
# [3] = test system: Pichia anomala (DSM 6766); assay: Serial dilution MIC assay, Pichia anomala; conditions: overnight incubation, n.i. = no inhibition
# Procedure: (§2) Serial dilution assays in 96-well microtiter plates were performed according to our standard protocol in order to determine the minimum inhibitory concentrations (MICs) of pure isolated compounds against different microorganisms. Essentially, aliquots of compounds 1–5 and 9 (20 µL), each with an initial concentration of 1 mg/mL, were diluted in MeOH together with the respective microorganisms to concentrations ranging between 67 µg/mL and 0.5 µg/mL in the 96-well plates, followed by overnight incubation. The MIC was then determined as the lowest concentration at which no growth of the test organism was observed. A broad spectrum of clinically approved test pathogens and sensitivity indicator strains were used in the assays (Table 4 and Table 5). Ciprofloxacin, oxytetracycline, kanamycin, and gentamycin were used as positive controls against bacterial pathogens, while nystatin was used as the positive control against fungi.
# [4] = test system: Actinobacter baumannii (DSM 30008); assay: Serial dilution MIC assay, Actinobacter baumannii; conditions: serial dilution 67-0.5 µg/mL, overnight incubation, n.i. = no inhibition
# Procedure: as §2
# [5] = test system: Pseudomonas aeruginosa (DSM PA14); assay: Serial dilution MIC assay, Pseudomonas aeruginosa; conditions: serial dilution 67-0.5 µg/mL, overnight incubation, n.i. = no inhibition
# Procedure: as §2
# [6] = test system: Mucor hiemalis (DSM 2656); assay: Serial dilution MIC assay, Mucor hiemalis; conditions: overnight incubation, n.i. = no inhibition
# Procedure: as §2
# [7] = test system: A431 (ACC91) human squamous cell carcinomas; assay: MTT cytotoxicity test, A431; conditions: A-431, 120 h, five days incubation
# Excerpt: as §1
# [8] = test system: Bacillus subtilis (DSM 10); assay: Serial dilution MIC assay, Bacillus subtilis; conditions: overnight incubation, n.i. = no inhibition
# Procedure: as §2
# [9] = test system: MCF-7 (A115) human breast adenocarcinoma; assay: MTT cytotoxicity test, MCF-7; conditions: MCF7, 120 h, MCF-7 human breast adenocarcinoma, five days incubation
# Excerpt: as §1
# [10] = test system: L929 (ACC2) mouse fibroblasts; assay: MTT cytotoxicity test, L929; conditions: five days incubation, n.c. = no cytotoxicity
# Excerpt: as §1
# [11] = test system: Candida albicans (DSM 1665); assay: Serial dilution MIC assay, Candida albicans; conditions: serial dilution 67-0.5 µg/mL, overnight incubation, n.i. = no inhibition
# Procedure: as §2
# [12] = test system: A549 (ACC107) human lung carcinoma; assay: MTT cytotoxicity test, A549; conditions: Homo sapiens, 120 h, five days incubation
# Excerpt: as §1
# [13] = test system: PC-3 (ACC465) human prostate adenocarcinoma; assay: MTT cytotoxicity test, PC-3; conditions: 120 h, PC-3 human prostate adenocarcinoma, five days incubation
# Excerpt: as §1
# [14] = test system: Rhodotorula glutinis (DSM 10134); assay: Serial dilution MIC assay, Rhodotorula glutinis; conditions: overnight incubation, n.i. = no inhibition
# Procedure: as §2
# [15] = test system: Escherichia coli (DSM 1116); assay: Serial dilution MIC assay, Escherichia coli; conditions: serial dilution 67-0.5 µg/mL, overnight incubation, n.i. = no inhibition
# Procedure: as §2
# [16] = test system: Mycolicibacterium smegmatis (ATCC 700084); assay: Serial dilution MIC assay, Mycolicibacterium smegmatis; conditions: overnight incubation, n.i. = no inhibition
# Procedure: as §2
# [17] = test system: other cell lines (MCF-7, A549, PC-3, SKOV-3, A431); assay: MTT cytotoxicity test, other cell lines of the panel; conditions: range over the cell lines other than L929 and KB3.1 (Table 6)
# Excerpt: as §1, with “These were incubated for five days, after which an MTT assay was performed.” left out, “The half-maximal inhibitory concentration (IC50), the concentration at which cell growth inhibition was 50% of the control, was calculated as described elsewhere.” left out
# [18] = test system: Staphylococcus aureus (DSM 346); assay: Serial dilution MIC assay, Staphylococcus aureus; conditions: overnight incubation, n.i. = no inhibition
# Procedure: as §2
# [19] = test system: Schizosaccharomyces pombe (DSM 70572); assay: Serial dilution MIC assay, Schizosaccharomyces pombe; conditions: overnight incubation, n.i. = no inhibition
# Procedure: as §2
# [20] = test system: Chromobacterium violaceum (DSM 30191); assay: Serial dilution MIC assay, Chromobacterium violaceum; conditions: overnight incubation, n.i. = no inhibition
# Procedure: as §2
# [21] = test system: tested microorganisms (bacteria and fungi); assay: Serial dilution MIC assays, whole panel of tested strains; conditions: all bacteria and fungi of Tables 4 and 5, result in words
# Procedure: as §2
# [22] = DSM2656, serial dilution 67-0.5 µg/mL, read-out: MIC
# [23] = DSM10, serial dilution 67-0.5 µg/mL, read-out: MIC
# [24] = DSM10134, serial dilution 67-0.5 µg/mL, read-out: MIC
# [25] = DSM346, serial dilution 67-0.5 µg/mL, read-out: MIC
SMILES,MIC [4],MIC [5],"MIC [6, 22] [µg/mL]","MIC [8, 23] [µg/mL]",MIC [11],"MIC [14, 24] [µg/mL]",MIC [15],"MIC [18, 25] [µg/mL]",MIC ([20]; serial dilution 67-0.5 µg/mL),MIC ([3]; serial dilution 67-0.5 µg/mL),MIC ([16]; serial dilution 67-0.5 µg/mL),MIC ([19]; serial dilution 67-0.5 µg/mL),"IC50 ([2]; KB 3-1, 120 h, read-out: IC50) [µM]","IC50 ([10]; 120 h, read-out: IC50) [µM]",IC50 [10],IC50 [2],further results
"CC(C)C1=C2[C@H]3CC[C@@H]4CO[C@@]5(O)[C@H](O)CO[C@H]6O[C@@H]([C@@H]4[C@]65O)[C@]3(C)CC[C@@]2(C)CC1=O [Compound 3, dentifragilin C]",n.i.,n.i.,,,n.i.,,n.i.,,n.i.,n.i.,n.i.,n.i.,,,not cytotoxic,not cytotoxic,MIC ([6]; serial dilution 67-0.5 µg/mL): n.i.; activity against all tested microorganisms [21]: devoid of any activity; MIC ([8]; serial dilution 67-0.5 µg/mL): n.i.; MIC ([14]; serial dilution 67-0.5 µg/mL): n.i.; MIC ([18]; serial dilution 67-0.5 µg/mL): n.i.
"CC(C)C1=C2[C@H]3CC[C@H](CO)[C@@H]4[C@H](O[C@@H]5OC[C@@H](O)[C@H](O)[C@@]54O)[C@]3(C)CC[C@@]2(C)CC1 [Compound 6, dentifragilin F]",,,,,,,,,,,,,,,not cytotoxic,not cytotoxic,
"CO[C@H]1O[C@@]2(O)[C@H](O)CO[C@H]3O[C@H]4[C@@H]([C@@H]1CC[C@@H]1C5=C(C(C)C)CC[C@]5(C)CC[C@]14C)[C@]32O [Compound 7, dentifragilin G]",,,,,,,,,,,,,10.3,14.9,weak activities,weak activities,

# Continued, in another order:
MIC [4],MIC [5],"MIC [6, 22] [µg/mL]","MIC [8, 23] [µg/mL]",MIC [11],"MIC [14, 24] [µg/mL]",MIC [15],"MIC [18, 25] [µg/mL]",MIC ([20]; serial dilution 67-0.5 µg/mL),MIC ([3]; serial dilution 67-0.5 µg/mL),MIC ([16]; serial dilution 67-0.5 µg/mL),MIC ([19]; serial dilution 67-0.5 µg/mL),SMILES,"IC50 ([2]; KB 3-1, 120 h, read-out: IC50) [µM]","IC50 ([10]; 120 h, read-out: IC50) [µM]",IC50 [10],IC50 [2],further results
n.i.,n.i.,16.7,1,n.i.,16.7,n.i.,4.2,n.i.,,,,"CC(C)C1=C2C3CC=C4C5OC6C(O)(COC7OC(C4C76O)C3(C)CCC2(C)CC1)O5 (stereo not drawn) [Compound 1, dentifragilin A]",2.2,5.8,,,"IC50 [1]: 1900 nM; MIC ([3]; Hansenula anomala, DSM6766, serial dilution 67-0.5 µg/mL, read-out: MIC): 66.6 µg/mL; IC50 [7]: 15.8 µM; IC50 [9]: 700 nM; IC50 [12]: 2800 nM; IC50 [13]: 2300 nM; MIC ([16]; ATCC700084, serial dilution 67-0.5 µg/mL, read-out: MIC): 66.6 µg/mL; IC50 [17]: 0.7 to 15.8 µM; MIC ([19]; DSM70572, serial dilution 67-0.5 µg/mL, read-out: MIC): 33.3 µg/mL"
n.i.,n.i.,,66.6,n.i.,,n.i.,66.6,n.i.,n.i.,n.i.,n.i.,"CC(C)C1=C2[C@H]3CC=C4[C@@H]5O[C@@H]6[C@@]7(O)[C@@H](OC[C@]6(O)O5)O[C@@H]([C@@H]47)[C@]3(C)CC[C@@]2(C)CC1=O [Compound 2, dentifragilin B]",51,,no activity,,MIC ([6]; serial dilution 67-0.5 µg/mL): n.i.; MIC ([14]; serial dilution 67-0.5 µg/mL): n.i.
n.i.,n.i.,66.6,16.7,n.i.,66.6,n.i.,33.3,n.i.,n.i.,n.i.,n.i.,"CC(C)C1=C2[C@H]3CC[C@H](CO)[C@@H]4[C@H](O[C@@H]5OC[C@@H](O)[C@H](O)[C@@]54O)[C@]3(C)CC[C@@]2(C)CC1=O [Compound 4, dentifragilin D]",42.2,48.9,weak activities,weak activities,
n.i.,n.i.,33.3,16.7,n.i.,66.6,n.i.,16.7,,n.i.,n.i.,n.i.,"CC(C)C1=C2[C@H]3CC=C(C=O)[C@@H]4[C@H](O[C@@H]5OC[C@@H](O)[C@H](O)[C@@]54O)[C@]3(C)CC[C@@]2(C)CC1 [Compound 5, dentifragilin E]",15.7,34.7,weak activities,weak activities,"MIC ([20]; DSM30191, serial dilution 67-0.5 µg/mL, read-out: MIC): 66.6 µg/mL"
